Assay: gradient 5% acetonitrile 3 min, to 50% in 2 min, to 85% in 15 min, held 3 min, 100 µL/min
Details: column: Zorbax Extend-C18 2.1 x 50 mm; eluents: water / acetonitrile, 0.1% formic acid
How it was run: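 Each retention time is based on an adduct peak selected computationally and verified by manual inspection. Measurements used HPLC–quadrupole time-of-flight mass spectrometry in positive and negative ionization mode on mixtures of ~100 pure standards. Chromatography ran on a Zorbax Extend-C18 column (2.1 × 50 mm, 1.8 μm) at 100 μL/min with water and acetonitrile, each containing 0.1% formic acid, and dead and dwell volumes of 40 μL and 900 μL.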

Row | Compound | RP-LC retention time [s]
1 | O=C(c1ccco1)N1CCC(n2c(-c3ccsc3)nc3cccnc32)C1 (stereo unspecified) | 644
2 | CC1=C(c2ccc(Cl)cc2)S(=O)(=O)N=C1N1CCCN(C(=O)c2ccoc2)CC1 | 825
3 | O=C(c1nc2ccccc2s1)N1CCC(COCc2ccccc2)CC1 | 1150
4 | COc1ccc(Nc2c(-c3ccc(Cl)cc3)nc3ncccn23)cc1OC | 748
5 | O=C(NCCc1c[nH]c2ccccc12)c1noc2c1CCc1sccc1-2 | 1050
6 | COc1ccc(-c2cn3c(CC(=O)Nc4cccc(Cl)c4)csc3n2)cc1OC | 791
7 | CC(C(=O)Nc1ccc(Cl)cc1F)C1CCN(C(=O)Nc2ccc(Cl)cc2)CC1 (stereo unspecified) | 1020
8 | CC(C)C(=O)N1C[C@@H](F)C[C@H]1C(=O)N1CCc2ccccc2C1 | 683
9 | CCOC(=O)c1nnn(-c2ccc(OCC)cc2)c1C(=O)OCC | 1040
10 | Cc1ccc(NC(=O)N2CCc3nc(CNC(=O)C4CCC4)n(C)c3C2)cc1 | 598
11 | CSc1c(N(C)C)c(=O)c1=S | 756
12 | CCOC(=O)c1c[nH]c2ccc(NC(C)=O)cc2c1=O | 557
13 | O=C(C1CCCN(c2nnc3ccc(Cl)cn23)C1)N1CCN(C2CCCCC2)CC1 (stereo unspecified) | 525
14 | COc1ccc(N2CCN(C(=O)[C@@H]3[C@H](c4cc(OC)c(OC)c(OC)c4)c4cc5c(cc4[C@H](O)[C@H]3CO)OCO5)CC2)cc1 | 698
15 | O=C(NC1CCN(Cc2ccccc2)CC1)C1CCCN(c2ncnc3c2nc2n3CCCCC2)C1 (stereo unspecified) | 1050
16 | CCCCNC(=O)C1CCCN(c2ccc(=O)n(-c3cccc(Cl)c3)n2)C1 (stereo unspecified) | 840
17 | CCCn1cc(C(=O)NCCCOC)c(S(=O)(=O)N2CCN(c3ccc(Cl)cc3)CC2)n1 | 1000
18 | COc1ccc(C2Cn3cnc(C(=O)N4CCC(C(=O)Nc5cc(C)cc(C)c5)CC4)c3CO2)cc1 (stereo unspecified) | 751
19 | CC(C)(C)n1nnnc1C1CC2(CCOCC2)C(=O)N1Cc1ccc(F)cc1Cl (stereo unspecified) | 671
20 | CC(NC(=O)C(=O)NCC1CCN(C(=O)NC(C)(C)C)CC1)c1ccccc1 (stereo unspecified) | 749
21 | Cc1ccsc1C(=O)Nc1ccc2c(c1)CCC(=O)N2C | 733
22 | COc1ccc(-c2nsc(C(=O)NCc3cccs3)c2N)cc1 | 866

Row | Compound | RP-LC retention time [s]
23 | CCCN1C(=O)c2cc(S(=O)(=O)Nc3ccccc3F)ccc2Oc2cccnc21 | 1030
24 | Cc1cc(C)cc(NC(=O)N2CC(c3nc(C(C)C)nn3C)C2)c1 | 718
25 | O=C(NCCC1CCN(C(=O)Nc2ccc(F)cc2F)CC1)c1ccoc1 | 726
26 | CCOC(=O)N1CCN(C(=O)CSc2ncnc3c2cnn3-c2ccc(F)cc2)CC1 | 849
27 | C#CCCNC(=O)c1ccc(C)c(C)c1 | 720
28 | COc1ccc(CN2C[C@@H]3C(=O)N(CCCN4CCCC4=O)C(=O)[C@@H]3C2)cc1OC | 575
29 | CC(C)(C)c1ccc(C(=O)NC2(c3nc(-c4ccccc4)no3)CCCCC2)cc1 | 1410
30 | CCc1cccc(NC(=O)N2CCc3nc(-c4ccccc4)ncc3C2)c1 | 901
31 | CCOc1ccccc1CN1C[C@@H]2C(=O)N(C)C(=O)[C@@H]2C1 | 595
32 | O=C(O)[C@H]1O[C@H](Oc2cc3oc(-c4ccccc4)cc(=O)c3c(O)c2O)[C@H](O)[C@@H](O)[C@@H]1O | 658
33 | CCc1nc2cc3c(cc2n1CC(=O)NC(C)c1ccccc1)OCCO3 (stereo unspecified) | 651
34 | CCn1nccc1-c1cccc(-c2noc(CNC(=O)c3ccco3)n2)c1 | 791
35 | COc1cc(C(=O)C(=O)c2ccc(O)c(OC)c2)ccc1O | 758
36 | Cc1nc2cc(-c3noc(/C=C/c4cccs4)n3)ccc2o1 | 1080
37 | O=C(Cc1nnc(-c2ccc3ncccc3c2)o1)Nc1ccc(F)cc1 | 697
38 | Cc1ccc(C(=O)N2CCCCC2c2nncn2CC2CC2)cn1 (stereo unspecified) | 575
39 | CN(C)c1ccc(-c2noc(CCC(=O)N3CCC4(CC3)OCCO4)n2)cc1 | 789
40 | Cc1ccc(-c2coc(-c3ccc(NC(=O)c4ccc(Br)o4)cc3)n2)cc1 | 1230
41 | CCOc1ccccc1C(=O)n1nc(C)c(S(=O)(=O)N2CCCCC2)c1C | 1160
42 | Cc1cc(F)ccc1NS(=O)(=O)c1ccc(-c2c(C)noc2C)cc1 | 964
43 | Cc1ccc(-n2nc(N3CCCN(C(=O)c4n[nH]c5c4CCCC5)CC3)ccc2=O)cc1 | 679
44 | CCCC(=O)Nc1ccc(-n2cnc(C(=O)N3CCSCC3)c2)nc1 | 671

Row | Compound | RP-LC retention time [s]
45 | Cc1ccc(NS(=O)(=O)c2ccc3c(c2)C(=O)N(C)c2ncccc2O3)cc1 | 914
46 | C[C@H](NC(=O)Cc1cc(F)cc(F)c1)C(=O)N[C@H](C(=O)OC(C)(C)C)c1ccccc1 | 944
47 | CCNC(=O)N(CC(=O)N1CCc2sccc2C1COc1ccc(C)cc1)CC1CC1 (stereo unspecified) | 935
48 | COc1ccc(N2C(=O)C3N=NN(Cc4nc(-c5ccccc5)no4)C3C2=O)cc1 (stereo unspecified) | 912
49 | O=C(NCCn1nc(-n2cccn2)ccc1=O)c1ccc2nsnc2c1 | 621
50 | CC1CCN(S(=O)(=O)c2cc(-c3ccc(=O)[nH]n3)cs2)CC1 | 772
51 | Cc1nn(-c2ccc(-c3ccccc3)nn2)c(C)c1S(=O)(=O)N1CCCC1 | 996
52 | Nc1cc(C2CCN(C(=O)Nc3ccc(F)cc3)CC2)no1 | 668
53 | CSc1cccc(NC(=O)N2CCN(C3=CC4=NCC(C)N4C=N3)CC2)c1 (stereo unspecified) | 650
54 | CC(=O)N1CCN(c2cc(-c3nc(-c4cccc(F)c4)no3)c3ccccc3n2)CC1 | 1090
55 | Fc1cccc(-c2nc(Cn3ccnc3)no2)c1 | 577
56 | Cc1ccc2c(c1)NC(=O)c1cc(NC(=O)Cc3ccc(F)cc3)ccc1O2 | 842
57 | Cc1ccnc(N2CCC(C(=O)NCCCN3CCCC(C)C3)CC2)n1 (stereo unspecified) | 568
58 | Cc1nnc(N2CCCC(C(=O)Nc3ccccc3Cl)C2)c2nn(-c3ccccc3)c(C)c12 (stereo unspecified) | 767
59 | CCCN(C)C[C@@H]1CC(F)(F)CN1C1CCN(S(=O)(=O)c2ccccc2F)CC1 | 712
60 | CC(C(=O)Nc1c(F)cccc1F)C1CCN(C(=O)Nc2ccc(Cl)cc2)CC1 (stereo unspecified) | 865
61 | COc1cc2c(cc1CNC(=O)COc1ccc(F)cc1)OCCCO2 | 874
62 | COc1cccc(Cc2nc(-c3cn(-c4ccc(F)cc4)nn3)no2)c1 | 994
63 | Cc1csc(-c2csc(S(=O)(=O)N(C)Cc3ccccc3)c2)n1 | 1090
64 | CN(C)[C@@H]1CN(C(=O)Cc2cccc3ccccc23)C[C@H]1CO | 546
65 | CCN(CC)C(=O)c1c2c(cn(-c3ccc(C)cc3)c1=O)C(=O)CC(C)(C)C2 | 799
66 | COc1ccc(OC)c(NC(=O)Cn2nc3n(c2=O)CCCCC3)c1 | 715
